Experimental data published in patent US10022453B2 (BAYER PHARMA AKTIENGESELLSCHAFT, priority 2013, dated 2018).

T1: human kinesin spindle protein KSP/Eg5 (Homo sapiens, UniProt P52732)
T1 construct: The motor domain of the human kinesin spindle protein KSP/Eg5; purchased tebu-bio/Cytoskeleton Inc 027EG01-XL
T1 sequence (P52732 18-359 limits assumed): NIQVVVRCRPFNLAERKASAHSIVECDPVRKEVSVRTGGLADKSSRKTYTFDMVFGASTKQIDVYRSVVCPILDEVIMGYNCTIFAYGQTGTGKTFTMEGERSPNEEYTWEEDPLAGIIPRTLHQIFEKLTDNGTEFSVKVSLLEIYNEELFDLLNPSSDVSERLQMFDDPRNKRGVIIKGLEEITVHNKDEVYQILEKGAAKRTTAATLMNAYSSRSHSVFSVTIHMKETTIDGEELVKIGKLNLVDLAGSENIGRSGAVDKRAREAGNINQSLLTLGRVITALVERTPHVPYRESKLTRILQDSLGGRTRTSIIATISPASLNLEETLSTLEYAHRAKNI


Experiments:
[1] = molecular target: T1, human kinesin spindle protein KSP/Eg5; test: Inhibition of the kinesin spindle protein KSP/Eg5 (ATPase, malachite green); format: biochemical; settings: 10 nM KSP motor domain, 500 μM ATP, 2 h RT
Procedure, shortened: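 KSP/Eg5 motor domain (10 nM) preincubated 5 min at RT with 50 μg/ml taxol-stabilized bovine or porcine microtubules in 15 mM PIPES pH 6.8, 5 mM MgCl2, 10 mM DTT. IC50 = mean of three experiments.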

[2] = Cell permeability, flux assay using Caco-2 cells; settings: human, Caco-2
NCI-H292 = test: Cytotoxic effects, MTT assay; format: cell-based; settings: Homo sapiens, 72 h incubation
Method: The cells are cultivated by a standard method, as indicated in the […] (ATCC) for the respective cell lines.
At the end of the selected incubation time, the MTT reagent is incubated with the cells for 4 h, followed by lysis of the cells overnight by addition of the detergent. […] The proliferation of cells which were not treated with test substance but were otherwise identically treated was defined as the 100% figure.

NCI-H292 tumour model = test: Anti-EGFR ADCs in the NCI-H292 tumour model on single treatment; format: in vivo, female NMRI-nude mice; settings: 2.5 mg/kg once on day 9; day 25
Method: Growth Inhibition/Regression of Experimental Tumours in the Mouse
The tumour area is determined as length×width.
When after the end of the treatment all groups of the experiment are terminated at the same time, the tumours can be removed and weighed.
C-6c. Efficacy of the Anti-EGFR Antibody Drug Conjugates in the NCI-H292 Tumour Model on Single Treatment
After the treatment, the tumour growth is monitored up to day 25.

[3] = molecular target: T2, recombinant human TWEAKR protein (TPP-2305) (Homo sapiens, UniProt Q9NP84); test: Binding affinities by Biacore analysis; settings: monovalent
T2 construct: purchased Fitzgerald Inc 30R-AT080
Method: Determination of Binding Affinities by Biacore Analysis:
Binding affinities of anti-TWEAKR antibodies were examined using surface plasmon resonance analysis on a Biacore T100 instrument (GE Healthcare Biacore, Inc.). The antibodies were immobilized on a CM5 sensor chip using an indirect capture reagent, anti-human IgG(Fc). […] Anti-TWEAKR antibodies were injected at a concentration of 10 μg/ml at […] for 10 sec.
Sensorgrams were generated after in-line reference cell correction, followed by subtraction of the buffer sample. The dissociation constant (KD) was calculated based on the ratio of association (kon) and dissociation (koff) constants, obtained by fitting sensorgrams using a 1:1 first order binding model.

ka [3]	kd [3]	Kd ([3]; read-out: KD (n M ))	Molecule	IC50 [1]	Papp B→A at 2 h [2]	efflux ratio at 2 h [2]	IC50 (NCI-H292)	T/C area (NCI-H292 tumour model)	T/C weight (NCI-H292 tumour model)
–	–	–	C[C@@H](NC(=O)[C@@H](N)CCN(C(=O)CO)[C@@H](c1nc(-c2cc(F)ccc2F)cn1Cc1ccccc1)C(C)(C)C)C(=O)NCCCC[C@H](N)C(=O)O.O=C(O)C(F)(F)F [Example 159, N^6-(N-{(2S)-2-Amino-4-[{(1R)-1-[1-benzyl-4-(2,5-difluorophenyl)-1H-imidazol-2-yl]-2,2-dimethylpropyl}(glycoloyl)amino]butanoyl}-D-alanyl)-L-lysine/trifluoroacetic acid (1:1)]	0.311 nM	0.7 ×10⁻⁶ cm/s	6.1	114 nM	–	–
–	–	–	CC(C)[C@H](NC(=O)CCCCCN1C(=O)CC(SC[C@H](N)C(=O)O)C1=O)C(=O)N[C@@H](C)C(=O)N[C@@H](CCCCNC(=O)CCNC(=O)[C@@H](N)CCN(C(=O)CO)[C@@H](c1cc(-c2cc(F)ccc2F)cn1Cc1ccccc1)C(C)(C)C)C(=O)O (stereo partly drawn) [Example 160, N^6-(N-{(2S)-2-Amino-4-[{(1R)-1-[1-benzyl-4-(2,5-difluorophenyl)-1H-pyrrol-2-yl]-2,2-dimethylpropyl}(glycoloyl)amino]butanoyl}-beta-alanyl)-N^2-N-{[6-(3-{[(2R)-2-amino-2-carboxyethyl]sulfanyl}-2,5-dioxopyrrolidin-1-yl)hexanoyl]-L-valyl-L-alanyl}-L-lysine/trifluoroacetic acid (1:1)]	0.681 nM	0.16 ×10⁻⁶ cm/s	1	≥ 500 nM	–	–
–	–	–	CC(C)(C)[C@H](c1cc(-c2cc(F)ccc2F)cn1Cc1ccccc1)N(CC[C@H](N)C(=O)NCCN)C(=O)CO.O=C(O)C(F)(F)F [Example 198]	10.7 nM	51.9 ×10⁻⁶ cm/s	34	19.5 nM	–	–
–	–	–	CC(C)(C)[C@H](c1cc(-c2cc(F)ccc2F)cn1Cc1ccccc1)N(CCCN)C(=O)CSC[C@H](NC(=O)CCOCCOCCOCCOCCNC(=O)CCN1C(=O)CC(SC[C@H](N)C(=O)O)C1=O)C(=O)O.O=C(O)C(F)(F)F.O=C(O)C(F)(F)F (stereo partly drawn) [Example 226, (2R)-22-[(3R/S)-3-{[(2R)-2-Amino-2-carboxyethyl]sulphanyl}-2,5-dioxopyrrolidin-1-yl]-2-[({2-[(3-aminopropyl){(1R)-1-[1-benzyl-4-(2,5-difluorophenyl)-1H-pyrrol-2-yl]-2,2-dimethylpropyl}amino]-2-oxoethyl}sulphanyl)methyl]-4,20-dioxo-7,10,13,16-tetraoxa-3,19-diazadocosan-1-oic acid/trifluoroacetic (1:2)]	1.49 nM	0.3 ×10⁻⁶ cm/s	0.2	222 nM	–	–
–	–	–	CC(C)(C)[C@H](c1cc(-c2cc(F)ccc2F)cn1Cc1ccccc1)N(CCCN)C(=O)CSCCC(N)C(=O)O.O=C(O)C(F)(F)F.O=C(O)C(F)(F)F (stereo partly drawn) [Example 232, S-{2-[(3-Aminopropyl){(1R)-1-[1-benzyl-4-(2,5-difluorophenyl)-1H-pyrrol-2-yl]-2,2-dimethylpropyl}amino]-2-oxoethyl}homocysteine/trifluoroacetic acid (1:2)]	2.2 nM	4.9 ×10⁻⁶ cm/s	14	15.5 nM	–	–
–	–	–	CC(C)(C)[C@H](c1nc(-c2cc(F)ccc2F)cn1Cc1ccccc1)N(CCCN)C(=O)CO [toxophor A, N-(3-aminopropyl)-N-{(1R)-1-[1-benzyl-4-(2,5-difluorophenyl)-1H-imidazol-2-yl]-2,2-dimethylpropyl}-2-hydroxyacetamide]	–	–	–	–	0.87	0.82
–	–	–	CC(C)(C)[C@H](c1nc(-c2cc(F)ccc2F)cn1Cc1ccccc1)N(CC[C@@H](N)CF)C(=O)CO [toxophor B, N-[(3R)-3-amino-4-fluorobutyl]-N-{(1R)-1-[1-benzyl-4-(2,5-difluorophenyl)-1H-imidazol-2-yl]-2,2-dimethylpropyl}-2-hydroxyacetamide]	–	–	–	–	0.57	0.40
1.32e+06 M⁻¹ s⁻¹	0.000564 s⁻¹	0.4 nM	P2D3(TPP-2196): comparative anti-TWEAKR antibody; variable domains from the patent literature, constant region added, "resulting in full-length IgGs" (protein, Mus Musculus) light: DIVLTQSPASLAVSLGQRATISCRASKSVSTSSYSYMHWYQQKPGQPPKLLIKYTSNLESGVPARFSGSGSGTDFILNIHPVEEEDAATYYCQHSRELPWTFGGGTKLEIKRADAAPTVSIFPPSSEQLTSGGASVVCFLNNFYPKDINVKWKIDGSERQNGVLNSWTDQDSKDSTYSMSSTLTLTKDEYERHNSYTCEATHKTSTSPIVKSFNRNEC heavy: QVSLKESGPGILQPSQTLSLTCSFSGFSLSTSGMGVSWIRQPSGKGLEWLAHIYWDDDKRYNPSLKSRLTISKDTSRNQVFLKITSVDTADTATYYCARRGPDYYGYYPMDYWGQGTSVTVSAKTTAPSVYPLAPVCGDTTGSSVTLGCLVKGYFPEPVTLTWNSGSLSSGVHTFPAVLQSDLYTLSSSVTVTSSTWPSQSITCNVAHPASSTKVDKKIEPRGPTIKPCPPCKCPAPNLLGGPSVFIFPPKIKDVLMISLSPIVTCVVVDVSEDDPDVQISWFVNNVEVHTAQTQTHREDYNSTLRVVSALPIQHQDWMSGKEFKCKVNNKDLPAPIERTISKPKGSVRAPQVYVLPPPEEEMTKKQVTLTCMVTDFMPEDIYVEWTNNGKTELNYKNTEPVLDSDGSYFMYSKLRVEKKNWVERNSYSCSVVHEGLHNHHTTKSFSRTPG	–	–	–	–	–	–
